Data on five compounds can be found in paper PMC12682947, “Identification of New KCNT1‐Epilepsy Drugs by In Silico, Cell, and Drosophila Modeling” (Annals of Neurology, 2025).

Test [1] relates to Drosophila epilepsy model. Details: method as in PMID 39720593. The note with it: cited from earlier work.
Test [2] relates to Drosophila mutant KCNT1 lines (G288S, R398Q, R928C). Nature of the test: Bang-sensitive behavioral seizure assay, statements for all three Drosophila mutant KCNT1 lines. The test is classed as in vivo, Drosophila melanogaster. As to conditions: drug in food, 1 nM to 1 μM, each of the three mutant lines. An excerpt:
The Drosophila melanogaster lines carrying the WT human KCNT1 transgene (NM_020822_3) or KCNT1 mutant G288S, R398Q or R928C transgene placed downstream of the yeast UAS promoter, have been described previously.[11] WT or mutant human UAS‐KCNT1 flies were crossed to flies expressing the GAL4 transcriptional activator under the control of the GAD1 promoter (GABAergic driver, Bloomington stock number 51630 P2) to drive expression of KCNT1 in GABAergic neurons, involved in neuronal inhibition.[11]
The bang‐sensitive behavioral assay (also known as the banging assay) was used to test for the presence of a seizure phenotype in Drosophila.[11], [30] Experiments were performed and scored, as previously described,[11] with a minimum of 50 Drosophila tested for each genotype and drug concentration.
Four drugs were selected for in vivo analysis to determine their effects on the seizure phenotypes in transgenic Drosophila lines with human mutant KCNT1 channels. Bepridil, a nonselective KCNT1 inhibitor was included for comparison. Drosophila food with and without drugs was prepared as previously described.[11] All chemicals were obtained from Sigma‐Aldrich (Gillingham, UK) apart from antrafenine hydrochloride (Toronto Research Chemicals, Canada) and regorafenib (USP, Germany).
Drosophila crosses were set up, and the resulting embryos were collected, as previously described.[11] A range of concentrations of each drug dissolved in Drosophila food, between 0.001 μM and 1 μM, were used in the experiments. Multiple replicates were performed for each dosage of the drugs and controls. Controls were vehicle controlled (VC), which was the normal food with just the solvent ethanol present (1 μl/1 ml) in the Drosophila food, and normal food (NF) control where no drug or solvent (ethanol) was added in the Drosophila food.
In all experiments, experimenters were not blinded to variants or treatments, nor were samples randomly assigned to groups. Sample sizes were not calculated in advance and no data were excluded from the analysis. Data were analyzed using GraphPad Prism 9 software (San Diego, CA, USA). All values are reported as mean ± standard error of the mean (SEM). All data passed normality and lognormality Shapiro–Wilk tests, determined by GraphPad Prism 9. In the experiments analyzing the effects of drugs in Drosophila, statistical significance of differences between groups was determined using Brown‐Forsythe and Welch's analysis of variance (ANOVA) tests (Supplementary Table S3), assuming non‐equal SDs, followed by Dunnett's multiple comparisons tests (GraphPad Prism 9). The results of the Dunnett's multiple comparisons tests are shown in Supplementary Table S4, where “N” represents independent trials using independent fly crosses, with the total number of flies for each condition shown in brackets.

The test system is the same in test [3]. The arrangement: method as in PMID 38336906. As to conditions: Drosophila models of KCNT1 epilepsy; cited from earlier work.

`CCCC(CCC)C(=O)O` [valproate]: the reduction of seizures entry in test [1] is listed as “approximately 30%”. Take `CC(C)COCC(CN(Cc1ccccc1)c1ccccc1)N1CCCC1` (centres unmarked) [bepridil]: in test [2], the “effect on seizure activity (in words)” value is given as “exacerbate the seizure phenotype”.

For the compound `Nc1nnc(-c2cccc(Cl)c2Cl)c(N)n1` [lamotrigine], the reduction of seizures entry in test [1] is “approximately 30%”. Regarding `O=C1NC(=O)C(c2ccccc2)(c2ccccc2)N1` [Phenytoin], the reduction of seizures result in test [1] was “approximately 30%”. For the compound `C=C[C@H]1C[N@@]2CC[C@H]1C[C@@H]2[C@@H](O)c1ccnc2ccc(OC)cc12` [quinidine], the “effect on seizure phenotype (in words)” value in test [3] was “exacerbate the seizure phenotype”.
